Legend:
pancreatic lipase [1] = target: T1, pancreatic lipase (Sus scrofa, UniProt P00591); assay: in vitro pancreatic lipase inhibition assay; format: biochemical
T1 sequence (P00591 1-450): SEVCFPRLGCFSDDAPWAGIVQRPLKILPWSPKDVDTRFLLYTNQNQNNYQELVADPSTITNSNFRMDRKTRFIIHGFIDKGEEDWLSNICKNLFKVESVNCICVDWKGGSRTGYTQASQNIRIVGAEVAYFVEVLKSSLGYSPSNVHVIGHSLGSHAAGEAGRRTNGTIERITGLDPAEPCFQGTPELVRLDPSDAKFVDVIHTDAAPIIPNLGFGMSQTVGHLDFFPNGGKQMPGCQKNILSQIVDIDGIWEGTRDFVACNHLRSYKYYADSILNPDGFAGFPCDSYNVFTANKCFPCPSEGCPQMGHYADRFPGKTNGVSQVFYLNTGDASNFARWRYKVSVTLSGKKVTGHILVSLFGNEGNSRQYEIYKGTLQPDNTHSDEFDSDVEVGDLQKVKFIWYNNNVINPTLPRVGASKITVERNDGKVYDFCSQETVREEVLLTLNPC

pancreatic lipase [2] = target: T2, pancreatic lipase (Homo sapiens, UniProt P16233); assay: microscale thermophoresis; format: binding
T2 sequence (P16233 17-465): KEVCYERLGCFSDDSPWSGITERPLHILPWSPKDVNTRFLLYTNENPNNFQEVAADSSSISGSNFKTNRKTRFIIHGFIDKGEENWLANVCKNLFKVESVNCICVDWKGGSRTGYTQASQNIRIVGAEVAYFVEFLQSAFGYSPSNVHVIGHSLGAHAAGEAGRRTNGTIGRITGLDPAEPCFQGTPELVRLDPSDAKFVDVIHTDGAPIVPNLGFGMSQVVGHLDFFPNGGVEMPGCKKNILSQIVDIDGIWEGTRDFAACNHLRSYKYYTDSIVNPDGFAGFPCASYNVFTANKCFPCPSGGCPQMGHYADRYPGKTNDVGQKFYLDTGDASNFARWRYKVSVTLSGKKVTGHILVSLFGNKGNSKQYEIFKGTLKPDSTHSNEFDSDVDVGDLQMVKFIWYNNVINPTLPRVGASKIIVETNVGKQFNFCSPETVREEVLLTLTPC

IC50 (pancreatic lipase [1]) | Kd (pancreatic lipase [2]) | SMILES
42.8 µM | 2.91 µM | O=C(CCc1ccc(O)cc1)CC(=O)CCc1ccc(O)cc1 [C4, 1,7-bis(4-hydroxyphenyl)heptane-3,5-dione]
98.6 µM | 18.2 µM | COc1cc(CCC(=O)CC(=O)CCc2ccc(O)c(OC)c2)ccc1O [C6, 1,7-bis(4-hydroxy-3-methoxyphenyl)heptane-3,5-dione]
 | 23.5 µM | COc1cc(/C=C/C(=O)CC(=O)/C=C/c2ccc(O)c(OC)c2)ccc1O [A6, curcumin, reference compound]
